Patent publication US12509451B2, “Heteroaryl amide inhibitors of CD38” (NAPA THERAPEUTICS LTD., priority 2020, dated 2025)
Several values for one entry are separate records, joined by “and”; a condition that tells them apart may be missing. Identical values can stand only once.

Tests used:
[1] = target: T1, human CD38 enzyme in primary human M1 macrophages (Homo sapiens, UniProt P28907); assay: NAD+ hydrolase activity assay in primary human M1 macrophages; type: cell-based; details: primary human M1 macrophages (LPS stimulated)
T1 construct: The assay utilized whole primary human macrophages (from healthy donors); endogenous in cells; host or cells: primary human macrophages from healthy donors, LPS-stimulated (M1)
T1 sequence (P28907 1-300): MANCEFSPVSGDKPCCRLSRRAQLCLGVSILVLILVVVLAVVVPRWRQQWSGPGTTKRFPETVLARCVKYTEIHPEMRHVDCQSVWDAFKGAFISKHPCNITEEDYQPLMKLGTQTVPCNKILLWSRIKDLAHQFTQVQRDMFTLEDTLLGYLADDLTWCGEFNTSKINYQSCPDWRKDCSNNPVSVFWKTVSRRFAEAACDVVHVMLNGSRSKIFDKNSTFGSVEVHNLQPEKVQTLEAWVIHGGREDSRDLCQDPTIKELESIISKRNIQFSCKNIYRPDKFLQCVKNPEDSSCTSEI
Procedure: The in vitro potency of Compound 35 against the human CD38 enzyme was determined by a fluorescence-based NAD+ hydrolase activity assay using the NAD+ analog nicotinamide 1,N^6-etheno-adenine dinucleotide (εNAD+) as substrate. The assay utilized: 1) whole primary human CD4+ T cells (from healthy donors) activated with anti-CD3/CD28 antibodies and expressing human CD38; or II) whole primary human macrophages (from healthy donors) stimulated with LPS to polarize in a pro-inflammatory M1 state expressing human CD38. The cells were incubated in the presence of 8 different concentrations of Compound 35 for 10 minutes and the reaction was started adding the substrate εNAD+. The emission of fluorescence was measured at 410-20 nm at 37° C. every minute for 1 hr. The NAD+ hydrolase activity was calculated as the slope of the linear portion of the fluorescence-time curve and used to calculate the IC50 value.
(§1) The in vitro potency of Compound 32 against the human CD38 enzyme was determined by a fluorescence-based NAD+ hydrolase activity assay using the NAD+ analog nicotinamide 1,N6-etheno-adenine dinucleotide (εNAD+) as substrate. The assay utilized whole primary human macrophages (from healthy donors) stimulated with LPS to polarize in a pro-inflammatory M1 state expressing human CD38. […] The emission of fluorescence was measured at 410-20 nm at 37° C. every minute for 1 hr. The NAD+ hydrolase activity was calculated as the slope of the linear portion of the fluorescence-time curve and used to calculate the IC50 value.
as §1, with “39” for “32”, “substrate.” for “substrate. The assay utilized whole primary human macrophages (from healthy donors) stimulated with LPS to polarize in a pro-inflammatory M1 state expressing human CD38.”

[2] = target: T2, recombinant mouse CD38 Protein (Mus musculus, UniProt P56528); assay: Fluorescence-based NAD+ cyclase activity assay with mouse recombinant CD38 protein (Assay 4); type: biochemical; details: read-out: Assay 4 Arithmetic mean IC50
T2 construct: purchased R&D System
T2 sequence (P56528 1-304): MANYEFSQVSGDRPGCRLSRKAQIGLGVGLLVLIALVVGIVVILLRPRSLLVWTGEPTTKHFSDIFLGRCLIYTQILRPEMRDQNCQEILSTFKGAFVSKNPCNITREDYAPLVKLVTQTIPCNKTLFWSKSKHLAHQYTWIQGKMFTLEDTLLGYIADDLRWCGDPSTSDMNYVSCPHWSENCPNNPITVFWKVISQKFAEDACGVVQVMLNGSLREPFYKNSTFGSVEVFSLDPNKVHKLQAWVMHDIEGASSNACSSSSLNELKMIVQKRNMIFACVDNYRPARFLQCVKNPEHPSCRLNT
Procedure: This protocol was modified from de Oliveira et al. (2018) supra.
NAD+ cyclase activity of the […] recombinant CD38 protein treated with test compounds was measured using a fluorescence-based assay. Briefly, recombinant mouse CD38 Protein (R&D System) was resuspended in 44 μl/well of Sucrose-Tris Buffer (Sucrose 0.25 M, Tris pH 7.4 40 mM) and plated in a 96-well black plate (CORNING) at a density of 32 ng/well.
Each test compound was received in a powder state and dissolved in DMSO as a 25 mM stock solution. Each test compound was serially diluted in order to generate a dose-response curve. The dilution series of each test compound in DMSO was prepared at 50 times the concentrations to be assayed. Each test compound was diluted to generate a 5-fold dilution series of 8 concentrations from 100 μM to 32 nM in order to assay 8 final concentrations ranging from 2 μM to 0.64 nM. One μl of the 50× concentration compound series was added to each well of the plate containing 125 ng of protein in Sucrose-Tris buffer.
Each plate had the following intra plate controls: 3 wells containing cells treated with vehicle only (DMSO), 3 wells of cells treated with the reference compounds 78c at a final concentration of 500 nM and 2 wells containing only Sucrose-Tris buffer (used as a background value).
The reaction was started adding nicotinamide guanine dinucleotide (NGD+) (Sigma Aldrich) to reach a final concentration of 150 µM. The samples were excited at 337-15 nm and the emission of fluorescence was measured at 442-20 nm at 37° C. every minute for 1 hr in a Clariostar® microplate reader (BMG LABTECH). NAD+ cyclase activity was calculated as the slope of the linear portion of the fluorescence-time curve using the MARS data analysis software (BMG LABTECH). The data were uploaded in the Collaborative Drug Design (CDD) Software and for each compound the IC50 was calculated by the software. Each compound was tested in 3 independent experiments on 3 separate days to establish the reproducibility of the results. For each plate, the z-factor was also calculated as a plate quality using the CDD software.

SMILES | IC50 [1] | IC50 [2] [nM]
O=C(Nc1ccnc(C(F)(F)F)c1)c1cc(OC2CC2)cc(-n2ccnc2)n1 [Compound 32, 4-cyclopropoxy-6-(1H-imidazol-1-yl)-N-(2-(trifluoromethyl)pyridin-4-yl)picolinamide] | 3.5 nM and 3.49 nM | 
CN(C)CCOc1cc(C(=O)Nc2ccnc(C(F)(F)F)c2)nc(-n2ccnc2)c1 [Compound 33] |  | 1 to 50
CC1(Oc2cc(C(=O)Nc3ccnc(C(F)(F)F)c3)nc(-n3ccnc3)c2)COC1 [Compound 34, 6-(1H-imidazol-1-yl)-4-((3-methyloxetan-3-yl)oxy)-N-(2-(trifluoromethyl)pyridin-4-yl)picolinamide] |  | 51 to 1000
COc1cc(C(=O)Nc2ccnc(C(F)(F)F)c2)nc(-n2ccnc2)c1 [Compound 35, 6-(1H-imidazol-1-yl)-4-methoxy-N-(2-(trifluoromethyl)pyridin-4-yl)picolinamide] | 2.25 nM | 1 to 50
COc1cc(C(=O)Nc2ccnc(C(F)(F)F)c2)nc(-n2ccnc2)n1 [Compound 37, 2-(1H-imidazol-1-yl)-6-methoxy-N-(2-(trifluoromethyl)pyridin-4-yl)pyrimidine-4-carboxamide] |  | 51 to 1000

More lines, now with the values ahead:

IC50 [1] | IC50 [2] [nM] | SMILES
 | 51 to 1000 | CCOc1cc(C(=O)Nc2ccnc(C(F)(F)F)c2)nc(-n2ccnc2)n1 [Compound 38]
3.9 nM and 3.92 nM | 1 to 50 | COCCOc1cc(C(=O)Nc2ccnc(C(F)(F)F)c2)nc(-n2ccnc2)n1 [Compound 39, 2-(1H-imidazol-1-yl)-6-(2-methoxyethoxy)-N-(2-(trifluoromethyl)pyridin-4-yl)pyrimidine-4-carboxamide]
 | 51 to 1000 | O=C(Nc1ccnc(C(F)(F)F)c1)c1cc(OC2CC2)nc(-n2ccnc2)n1 [Compound 40]
 | 1 to 50 | O=C(Nc1ccnc(C(F)(F)F)c1)c1cc(C2CC2)nc(-n2ccnc2)n1 [Compound 51, 6-cyclopropyl-2-(1H-imidazol-1-yl)-N-(2-(trifluoromethyl)pyridin-4-yl)pyrimidine-4-carboxamide]
